experiment: Lethal dose in mice when administered orally; format: toxicity, organism-based; details: mouse, in vivo, po

**Q.** Which LD50 does the source give for CC(C)Cc1ccc(C(C)C(=O)OCCOCCOCCOCCO)cc1 (stereo not drawn) here?
**A.** > 2000 mg/kg

**Q.** Which LD50 does the source give for CC(C)Cc1ccc(C(C)C(=O)OCCOCCOCCOCCOCCOCCOCCOCCOCCOCCOCCOCCOCCOCCOCCOCCOCCOCCOCCOCCOC(=O)C(C)c2ccc(CC(C)C)cc2)cc1 (stereo not drawn) here?
**A.** > 2000 mg/kg

**Q.** With CC(C)Cc1ccc(C(C)C(=O)OCCOCCOCCOCCOCCOCCOCCOCCOCCOCCOCCOCCOCCOCCOCCOCCOCCOCCOCCOCCOCCOCCOCCOCCOCCOCCOCCOCCOCCOCCOCCOCCOCCOCCOCCOCCOCCOCCOCCOCCOCCOCCOCCOCCOCCOC(=O)C(C)c2ccc(CC(C)C)cc2)cc1 (stereo not drawn) as the compound, how does the LD50 read?
**A.** > 2000 mg/kg

From ChEMBL document CHEMBL1121918, “Synthesis and pharmacological evaluation of poly(oxyethylene) derivatives of 4-isobutylphenyl-2-propionic acid (ibuprofen)” (J Med Chem, 1981)
